Values quoted from earlier work as cited in patent publication US20100166671A1, “ORGANIC COMPOUNDS” (priority 2006, published 2010).

Settings: single administration of a metered dose, aerosol formulation, treating asthma

## C[N+]1(C)CCC(OC(=O)C(O)(c2ccccc2)C2CCCC2)C1.[Br-] (stereo not shown) [glycopyrrolate, 3-[(cyclopentyl-hydroxyphenylacetyl)oxy]-1,1-dimethylpyrrolidinium bromide]
  duration of bronchodilation: up to 12 hours
